{"source": "patent US7875343B2", "about": "“Anti-microbial carpet underlay and method of making” (L & P Property Management Company, priority 2003, dated 2011)", "key": {"[1]": {"tested_on": "Aspergillus niger", "conditions": "film side specimens, total minimum combined concentration (pad + film) of about 1600 ppm", "description": "(§1) Biocidal effectiveness of the rebonded carpet pad 12 and/or film 18 according the present invention may be determined by measuring inhibition of growth of bacterial and/or fungus using AATCC (American Association of Textile Chemists and Colorists) 174, ASTM E2180-1, and ASTM D 3273 test protocols compared to non-treated control standards. The AATCC 174 protocol was developed for determining the antimicrobial activity of new carpet materials."}, "[2]": {"tested_on": "Staphylococcus aureus", "conditions": "unwashed foam side specimen with 751 ppm of zinc pyrithione", "description": "as §1\n(§2) A number of specimens of carpet underlay 10 were made by methods described above, with various concentrations of zinc pyrithione in the binder 16 and film 18 for testing to determine levels that provide an effective antimicrobial effect. The specimens included a film 18 on one side as illustrated in FIG. 1. This allowed testing of the foam side of the specimens to indicate antimicrobial effect of the pad 12 without film 18 and testing of the film side to indicate antimicrobial effect of the pad 12 with film 18. The AATCC 174 test method provides for testing both unwashed and washed samples. Washed samples were treated according to the AATCC 138 protocol.\n(§3) The AATCC 174 test method includes three parts. Part I is a qualitative test for antibacterial activity. Test specimens are placed into contact with a nutrient agar which has been streaked with a bacterial culture. The specimens are then incubated. After incubation, a clear area of interrupted growth underneath and along the sides of the test specimen indicates antibacterial activity of the specimen. Standard strains of bacteria are used, with Staphylococcus aureus and Klebsiella pneumoniae being the representative organisms."}, "[3]": {"tested_on": "Klebsiella pneumoniae", "description": "as §1, §2, §3"}, "[4]": {"tested_on": "Staphylococcus aureus", "description": "as §1, §2\n(§4) The AATCC 174, Part II test provides a quantitative procedure for the evaluation of the degree of antibacterial activity. Test specimens are inoculated with the test microorganisms. After incubation, the bacteria are eluted from specimens by shaking in 100 milliliters of liquid. The number of bacteria present in the liquid is determined and the percent reduction produced by the specimen is calculated."}, "[5]": {"tested_on": "Klebsiella pneumoniae", "description": "as §1, §2, §4", "remark": "listed apart in the source"}, "[6]": {"tested_on": "Aspergillus niger", "conditions": "28 degrees C., seven days", "description": "as §1, §2"}, "[7]": {"tested_on": "Aspergillus niger", "method": "as §1\nInhibitory mold activity was also tested by the ASTM E2180-01 test method. […] The total combined concentration is the sum of the concentration in the pad 12 of a specimen and the concentration in the film 18 of the specimen."}, "[8]": {"conditions": "all unwashed and washed film and foam side specimens, 500 ppm or more in the film and 1096 ppm in the pad"}, "[9]": {"conditions": "washed foam side specimen containing 751 ppm of zinc pyrithione"}, "[10]": {"conditions": "washed foam side specimen containing 1096 ppm of zinc pyrithione"}}, "note": "Read-outs that look alike come from different tables or passages of the source."}
{"smiles": "[O-]n1ccccc1=S.[O-]n1ccccc1=S.[Zn+2]", "note": "[zinc pyrithione, Bis(1-hydroxy-2(1H)-pyridinethionato-O,S)-(T-4)Zinc]", "values": [{"measurement": "Aspergillus niger mold colonization", "setting": "[1]", "value": "No Aspergillus niger mold colonization was observed"}, {"measurement": "zone of inhibition for Staphylococcus aureus", "setting": "[2]", "value": "two"}, {"measurement": "growth of Klebsiella pneumoniae underneath and along the sides of the specimen", "setting": "[3]; all unwashed and washed foam side specimens with 1096 ppm or more of zinc pyrithione", "value": "inhibited the growth"}, {"measurement": "zone of inhibition for Klebsiella pneumoniae", "setting": "[3]; unwashed foam side specimen with 751 ppm of zinc pyrithione", "value": "one"}, {"measurement": "average reduction in Staphylococcus aureus", "setting": "[4]; [8]", "value": 92, "unit": "%"}, {"measurement": "reduction in Staphylococcus aureus (minimum over specimens)", "setting": "[4]; [8]", "value": "at least 66%"}, {"measurement": "reduction in the numbers of Staphylococcus aureus", "setting": "[4]; [9]", "value": 90, "unit": "%"}, {"measurement": "reduction in the numbers of Staphylococcus aureus", "setting": "[4]; [10]", "value": 90, "unit": "%"}, {"measurement": "reduction in the numbers of Klebsiella pneumoniae", "setting": "[5]; [9]", "value": 90, "unit": "%"}, {"measurement": "reduction in the numbers of Klebsiella pneumoniae", "setting": "[5]; [10]", "value": 90, "unit": "%"}, {"measurement": "fungus growth (Aspergillus niger)", "setting": "[6]; washed and unwashed film side samples, 1500 ppm or greater of zinc pyrithione in the film", "value": "No growth was observed"}, {"measurement": "fungus growth (Aspergillus niger)", "setting": "[6]; washed and unwashed foam side samples, 1096 ppm of zinc pyrithione in the pad", "value": "no observable fungus growth"}, {"measurement": "inhibitory activity for Aspergillus niger", "setting": "[7]; film side specimens, total minimum combined concentration (pad + film) of 1600 ppm", "value": "Good inhibitory activity"}, {"measurement": "inhibitory activity for Aspergillus niger", "setting": "[7]; total combined concentration of 1251 ppm, i.e. 751 ppm in the pad and 500 ppm in the film", "value": "Good results were achieved for some, but not all, specimens"}]}
